The results in this text go back to patent US7244595B2, “Method of maintaining or improving a nitrile hydratase activity” (priority 2003, dated 2007).

Values joined by “and” are separate entries in the source; they are usually repeats but may differ in a detail not shown here. Equal entries are not always repeated.

Experiment [1] addresses T1, nitrile hydratase (Pseudonocardia thermophila, UniProt Q7SID2+Q7SID3). The experiment in a line: Nitrile hydrating activity (acrylamide formed) of wet microorganism contacted with an oxidizing agent in deoxidized water. In kind it is cell-based, Escherichia coli HB101 (MT-10822 strain). Further details: expressed in transfected cells; host or cells: Escherichia coli HB101 (transformant MT-10822, FERM BP-5785), IPTG-induced.
Protocol: (§1) In HPLC analysis of a reaction solution in the Examples, ULTRON 80HG (50×8 φmm) was used as an HPLC column, and 10 mM aqueous phosphate solution was used as a developing solution. Acrylamide and acrylonitrile were detected by absorbance at 220 nm to determine their concentrations.
The resulting microorganism, 0.20 g, was suspended in previously deoxidized pure water in a 100 ml sealable glass container previously sufficiently purged with nitrogen, and potassium ferricyanide was added and suspended as an oxidizing agent at a final concentration shown in Table 1 to give 20.00 g suspension. Separately, an oxidizing agent-free microbial suspension was prepared in the same manner. The microbial suspension was kept at 20° C. for 15 minutes under stirring.
(§2) The reaction was terminated by adding 80 g of 10 mM aqueous phosphoric acid, and then the concentration of acrylamide in the reaction solution was determined by HPLC analysis. Subsequently, the concentration of the microbial suspension based on the dry weight of the microorganism was determined, and then the amount of formed acrylamide per unit dry weight of the microorganism was calculated.
The amount of acrylamide formed per unit dry weight of the microorganism was determined in the same manner as in Example 3 except that in place of potassium ferricyanide, ammonium persulfate was added and suspended as an oxidizing agent at a concentration shown in Table 1.
The microbial suspension was kept at 20° C. under stirring. 0 minute, 10 minutes, 2 hours and 24 hours after the stirring was initiated, a small amount of the microbial suspension was collected, and the amount of formed acrylamide per unit dry weight of the microorganism was determined in the same manner as in Example 3.
Separately, a microbial suspension wherein the oxidizing agent was not added and the pH value was not adjusted was also prepared in the same manner. The microbial suspension was kept at 20° C. for 15 minutes under stirring. The amount of formed acrylamide per unit dry weight of the microorganism was determined in the same manner as in Example 3.
Separately, a microbial suspension wherein the oxidizing agent was not added was also prepared in the same manner. The amount of formed acrylamide per unit dry weight of the microorganism was determined in the same manner as in Example 3.

The target in experiment [2] is T1, nitrile hydratase.
Protocol: as §1
MT-10822 strain (FERM BP-5785, see JP-A 11-253168) having a nitrile hydratase gene introduced into Escherichia coli HB101, deposited by Mitsui Chemicals, Inc., was used as the nitrile hydratase-containing cell in this example.
For culture of this microbial strain, 15.0 L medium having the following composition was prepared in a 30 L culture container and sterilized with high-pressure steam at 121° C. for 20 minutes. Ampicillin was added at a final concentration of 50 μg/ml to this medium, and the microbial strain was inoculated via a platinum loop thereto and cultured at 37° C. at 700 rpm for 20 hours. […]
The reaction was terminated by adding 80 g of 10 mM aqueous phosphoric acid, and then the concentration of acrylamide in the reaction solution was determined by HPLC analysis. Subsequently, the concentration of the microbial suspension was determined on the basis of the dry weight of the microorganism, and then the amount of formed acrylamide per unit dry weight of the microorganism was calculated. […]
The target in experiment [3] is T1, nitrile hydratase. This is another data set of the same source.
Protocol: as §1, §2
A wet microorganism was obtained in the same manner as in Example 3. […] The suspension was kept at 10° C. under stirring, while the air (40 N-ml/min.) was passed through the gaseous phase in the flask. 0, 1, 2, 3, 7 and 19 days after storage, a part of the microbial suspension was removed. […] The amount of formed acrylamide in each of the collected microbial suspensions per unit dry weight of the microorganism was determined in the same manner as in Example 3.
A wet microorganism was obtained in the same manner as in Example 3. […] The amount of formed acrylamide in each of the collected microbial suspensions per unit dry weight of the microorganism was determined in the same manner as in Example 3.

T1 sequence (Q7SID2 whole entry): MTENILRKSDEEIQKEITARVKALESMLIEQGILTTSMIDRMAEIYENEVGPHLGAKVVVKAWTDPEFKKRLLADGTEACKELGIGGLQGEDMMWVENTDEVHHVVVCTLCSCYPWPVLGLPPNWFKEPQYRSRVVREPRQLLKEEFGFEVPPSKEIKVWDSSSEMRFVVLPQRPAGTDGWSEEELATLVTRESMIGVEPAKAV
T1 sequence (Q7SID3 whole entry): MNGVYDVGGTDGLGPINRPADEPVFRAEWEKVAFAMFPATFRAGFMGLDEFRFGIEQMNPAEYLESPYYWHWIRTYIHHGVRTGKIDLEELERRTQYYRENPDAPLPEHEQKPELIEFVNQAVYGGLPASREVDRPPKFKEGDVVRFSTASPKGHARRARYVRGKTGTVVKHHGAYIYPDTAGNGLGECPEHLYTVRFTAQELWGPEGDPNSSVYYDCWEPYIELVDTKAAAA

Turning to `N.N.O=S(=O)(O)OOS(=O)(=O)O` [AMMONIUM PERSULFATE, ammonium persulfate], on nitrile hydratase [1], the “AMOUNT OF […] (RELATIVE VALUE)” value is reported as 1.6 relative value and the “nitrile hydrating activity of the nitrile hydratase on contact of the microorganism with the oxidizing agent (in words)” value is listed as “improved”.

As for `OO` [HYDROGEN PEROXIDE, hydrogen peroxide], at nitrile hydratase [1], the “AMOUNT OF […] (RELATIVE VALUE)” value came out at 2.4 relative value and the “nitrile hydrating activity of the nitrile hydratase on contact of the microorganism with the oxidizing agent (in words)” value is listed as “improved”.

Turning to `O=O` [oxygen], the “amount of formed acrylamide per unit dry weight of the microorganism (0 hour of storage = 1)” value at nitrile hydratase [2] was 1.1 and 1.0. For the same molecule, the “nitrile hydrating activity of the nitrile hydratase on contact with oxygen, depending on the contact time (in words)” value at nitrile hydratase [3] is given as “improved depending on the contact time”.
